Reference: the kinase profiling compilation of Christmann-Franck et al. (2016)

Legend:
Test in all cases: SelectScreen, TR FRET
Conditions in all cases: compound 5.0 µM
FLT4 (human) = FLT4 (human) (UniProt P35916)
CAMK2A (human) = CAMK2A (human) (UniProt Q9UQM7)
PLK1 (human) = PLK1 (human) (UniProt P53350)
CDK5 CDK5R1 p35 (human) = CDK5 CDK5R1 p35 (human) (UniProt Q00535+Q15078)
CAMK2B (human) = CAMK2B (human) (UniProt Q13554)
YES1 (human) = YES1 (human) (UniProt P07947)
EPHB4 (human) = EPHB4 (human) (UniProt P54760)
CAMK1D (human) = CAMK1D (human) (UniProt Q8IU85)
SYK (human) = SYK (human) (UniProt P43405)
MINK1 (human) = MINK1 (human) (UniProt Q8N4C8)
PRKX (human) = PRKX (human) (UniProt P51817)
PRKCD (human) = PRKCD (human) (UniProt Q05655)
[1] = system: MET (human), P08581 [M1250T]
[2] = system: PDGFRA (human), P16234 [T674I]
[3] = system: EGFR (human), P00533 [L858R]
EPHA1 (human) = EPHA1 (human) (UniProt P21709)
MAP2K1 (human) = MAP2K1 (human) (UniProt Q02750)
MAPK13 (human) = MAPK13 (human) (UniProt O15264)
CDK2 CCNA2 (human) = CDK2 CCNA2 (human) (UniProt P24941+P20248)
MST4 (human) = MST4 (human) (UniProt Q9P289)
TSSK2 (human) = TSSK2 (human) (UniProt Q96PF2)
CSNK1G2 (human) = CSNK1G2 (human) (UniProt P78368)
CAMK2D (human) = CAMK2D (human) (UniProt Q13557)
EPHA3 (human) = EPHA3 (human) (UniProt P29320)
GSK3B (human) = GSK3B (human) (UniProt P49841)
FRK (human) = FRK (human) (UniProt P42685)
PHKG2 (human) = PHKG2 (human) (UniProt P15735)
FLT3 (human) = FLT3 (human) (UniProt P36888)
[4] = system: FLT3 (human), P36888 [D835Y]
FYN (human) = FYN (human) (UniProt P06241)
STK25 (human) = STK25 (human) (UniProt O00506)
CHEK2 (human) = CHEK2 (human) (UniProt O96017)
DYRK4 (human) = DYRK4 (human) (UniProt Q9NR20)
SGK1 (human) = SGK1 (human) (UniProt O00141)
MAPK11 (human) = MAPK11 (human) (UniProt Q15759)
FGFR2 (human) = FGFR2 (human) (UniProt P21802)
BMX (human) = BMX (human) (UniProt P51813)
STK3 (human) = STK3 (human) (UniProt Q13188)
AKT1 (human) = AKT1 (human) (UniProt P31749)
PASK (human) = PASK (human) (UniProt Q96RG2)

Sequence of PHKG2 (human) (P15735 whole entry, looked up): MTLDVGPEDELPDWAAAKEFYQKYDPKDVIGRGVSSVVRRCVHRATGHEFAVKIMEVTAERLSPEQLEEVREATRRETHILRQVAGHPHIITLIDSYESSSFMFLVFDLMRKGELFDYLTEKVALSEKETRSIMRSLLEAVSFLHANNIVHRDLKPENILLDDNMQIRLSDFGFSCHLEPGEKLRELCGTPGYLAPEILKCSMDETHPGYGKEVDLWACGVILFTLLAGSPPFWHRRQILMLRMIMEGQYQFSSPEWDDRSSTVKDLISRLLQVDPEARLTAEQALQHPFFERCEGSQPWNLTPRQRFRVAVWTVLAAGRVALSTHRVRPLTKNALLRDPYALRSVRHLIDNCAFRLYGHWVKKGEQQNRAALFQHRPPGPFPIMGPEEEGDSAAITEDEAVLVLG
Sequence of MST4 (human) (Q9P289 whole entry, looked up): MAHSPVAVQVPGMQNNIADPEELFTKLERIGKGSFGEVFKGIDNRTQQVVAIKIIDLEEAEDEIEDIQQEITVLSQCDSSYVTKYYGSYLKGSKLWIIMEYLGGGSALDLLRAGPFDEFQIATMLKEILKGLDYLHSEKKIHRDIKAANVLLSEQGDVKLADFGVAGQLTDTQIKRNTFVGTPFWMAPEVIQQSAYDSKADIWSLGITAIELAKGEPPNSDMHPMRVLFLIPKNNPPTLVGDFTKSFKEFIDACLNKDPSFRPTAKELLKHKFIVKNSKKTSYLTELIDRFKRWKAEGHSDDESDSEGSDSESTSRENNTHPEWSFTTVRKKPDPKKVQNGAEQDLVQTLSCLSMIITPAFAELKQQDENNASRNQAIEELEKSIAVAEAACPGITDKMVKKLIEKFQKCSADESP
Sequence of FRK (human) (P42685 whole entry, looked up): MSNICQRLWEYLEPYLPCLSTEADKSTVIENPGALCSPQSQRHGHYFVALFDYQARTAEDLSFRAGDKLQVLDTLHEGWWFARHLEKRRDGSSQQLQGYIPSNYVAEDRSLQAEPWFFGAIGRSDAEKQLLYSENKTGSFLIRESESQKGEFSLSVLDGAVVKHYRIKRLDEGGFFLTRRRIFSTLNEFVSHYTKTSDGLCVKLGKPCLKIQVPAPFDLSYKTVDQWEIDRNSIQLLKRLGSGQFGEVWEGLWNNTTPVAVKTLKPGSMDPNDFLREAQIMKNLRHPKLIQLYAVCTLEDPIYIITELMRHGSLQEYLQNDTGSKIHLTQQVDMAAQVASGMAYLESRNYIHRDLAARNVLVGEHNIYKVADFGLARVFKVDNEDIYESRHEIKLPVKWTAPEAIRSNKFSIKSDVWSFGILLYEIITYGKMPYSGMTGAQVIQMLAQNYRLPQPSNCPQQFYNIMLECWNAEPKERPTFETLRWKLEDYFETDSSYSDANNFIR
Sequence of CHEK2 (human) (O96017 whole entry, looked up): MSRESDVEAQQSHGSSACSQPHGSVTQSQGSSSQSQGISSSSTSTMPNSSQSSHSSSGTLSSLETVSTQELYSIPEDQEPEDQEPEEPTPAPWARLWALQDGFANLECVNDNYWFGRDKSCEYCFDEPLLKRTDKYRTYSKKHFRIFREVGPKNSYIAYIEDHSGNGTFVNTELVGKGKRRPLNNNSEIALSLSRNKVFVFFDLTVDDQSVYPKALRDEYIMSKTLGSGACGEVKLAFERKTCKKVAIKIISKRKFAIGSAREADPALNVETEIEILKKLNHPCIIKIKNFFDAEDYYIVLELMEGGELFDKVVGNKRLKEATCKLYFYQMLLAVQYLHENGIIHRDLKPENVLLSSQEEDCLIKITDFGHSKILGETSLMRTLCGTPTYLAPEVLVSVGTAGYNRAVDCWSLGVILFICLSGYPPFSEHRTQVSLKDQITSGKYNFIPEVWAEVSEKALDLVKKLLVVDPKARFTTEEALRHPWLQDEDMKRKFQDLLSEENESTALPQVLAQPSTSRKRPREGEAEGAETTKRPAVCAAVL
Sequence of EPHA1 (human) (P21709 whole entry, looked up): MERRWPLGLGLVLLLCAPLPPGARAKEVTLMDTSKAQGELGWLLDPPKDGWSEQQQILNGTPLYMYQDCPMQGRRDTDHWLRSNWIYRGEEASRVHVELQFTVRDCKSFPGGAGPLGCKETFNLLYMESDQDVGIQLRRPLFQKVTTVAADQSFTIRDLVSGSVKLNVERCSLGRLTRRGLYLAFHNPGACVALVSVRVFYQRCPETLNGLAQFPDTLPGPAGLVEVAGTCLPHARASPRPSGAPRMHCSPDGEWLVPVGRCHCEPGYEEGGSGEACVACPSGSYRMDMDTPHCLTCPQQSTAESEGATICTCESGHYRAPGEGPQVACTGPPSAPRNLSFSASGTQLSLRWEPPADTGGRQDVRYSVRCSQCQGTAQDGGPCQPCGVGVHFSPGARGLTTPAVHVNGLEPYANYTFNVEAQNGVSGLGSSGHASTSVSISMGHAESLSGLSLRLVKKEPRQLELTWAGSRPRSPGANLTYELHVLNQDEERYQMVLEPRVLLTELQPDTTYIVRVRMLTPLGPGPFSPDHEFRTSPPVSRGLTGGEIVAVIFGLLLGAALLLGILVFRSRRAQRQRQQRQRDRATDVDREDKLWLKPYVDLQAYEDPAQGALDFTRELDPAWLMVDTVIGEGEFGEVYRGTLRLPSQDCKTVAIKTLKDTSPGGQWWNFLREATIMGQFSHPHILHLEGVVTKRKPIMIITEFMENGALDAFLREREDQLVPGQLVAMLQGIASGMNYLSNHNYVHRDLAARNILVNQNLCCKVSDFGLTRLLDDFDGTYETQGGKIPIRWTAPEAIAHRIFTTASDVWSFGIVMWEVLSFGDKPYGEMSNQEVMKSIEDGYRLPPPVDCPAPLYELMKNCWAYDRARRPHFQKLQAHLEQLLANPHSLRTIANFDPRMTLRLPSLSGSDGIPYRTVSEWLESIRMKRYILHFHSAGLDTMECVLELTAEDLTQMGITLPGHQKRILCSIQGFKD
Sequence of FGFR2 (human) (P21802 whole entry, looked up): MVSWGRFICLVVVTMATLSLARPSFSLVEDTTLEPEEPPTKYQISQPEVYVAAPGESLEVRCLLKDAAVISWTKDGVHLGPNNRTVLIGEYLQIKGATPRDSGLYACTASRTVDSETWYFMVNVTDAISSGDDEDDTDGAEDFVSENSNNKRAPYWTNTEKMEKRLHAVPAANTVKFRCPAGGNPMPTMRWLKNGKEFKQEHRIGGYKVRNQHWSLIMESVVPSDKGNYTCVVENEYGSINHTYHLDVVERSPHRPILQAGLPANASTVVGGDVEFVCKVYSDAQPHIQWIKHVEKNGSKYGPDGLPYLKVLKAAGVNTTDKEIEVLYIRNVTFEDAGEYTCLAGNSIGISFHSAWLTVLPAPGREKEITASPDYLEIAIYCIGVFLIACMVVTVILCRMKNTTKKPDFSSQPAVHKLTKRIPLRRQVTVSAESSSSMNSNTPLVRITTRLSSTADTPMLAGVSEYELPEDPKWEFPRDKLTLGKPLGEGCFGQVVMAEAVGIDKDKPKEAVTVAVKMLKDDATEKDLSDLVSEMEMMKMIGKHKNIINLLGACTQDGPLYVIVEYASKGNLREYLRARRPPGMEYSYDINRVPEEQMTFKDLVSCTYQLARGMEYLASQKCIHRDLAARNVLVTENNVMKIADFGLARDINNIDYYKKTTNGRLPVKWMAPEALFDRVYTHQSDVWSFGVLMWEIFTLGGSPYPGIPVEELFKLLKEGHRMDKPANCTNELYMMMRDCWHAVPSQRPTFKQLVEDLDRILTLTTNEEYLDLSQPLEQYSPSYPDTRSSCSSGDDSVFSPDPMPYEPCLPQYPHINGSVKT
Sequence of STK3 (human) (Q13188 whole entry, looked up): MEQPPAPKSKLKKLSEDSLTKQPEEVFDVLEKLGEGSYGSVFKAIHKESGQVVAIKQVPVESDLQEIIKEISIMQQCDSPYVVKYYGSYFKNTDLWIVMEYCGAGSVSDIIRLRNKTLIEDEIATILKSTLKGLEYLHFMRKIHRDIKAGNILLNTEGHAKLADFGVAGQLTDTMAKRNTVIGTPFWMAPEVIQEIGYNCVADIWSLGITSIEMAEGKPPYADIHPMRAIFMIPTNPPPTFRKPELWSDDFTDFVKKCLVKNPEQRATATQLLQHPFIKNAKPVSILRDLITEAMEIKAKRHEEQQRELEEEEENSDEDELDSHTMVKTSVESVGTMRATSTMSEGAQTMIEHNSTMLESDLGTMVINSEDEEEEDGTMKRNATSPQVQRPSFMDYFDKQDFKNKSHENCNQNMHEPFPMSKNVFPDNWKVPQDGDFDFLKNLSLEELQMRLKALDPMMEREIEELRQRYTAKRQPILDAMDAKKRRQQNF
Sequence of CDK2 CCNA2 (human) (P20248 whole entry, looked up, other chains not shown): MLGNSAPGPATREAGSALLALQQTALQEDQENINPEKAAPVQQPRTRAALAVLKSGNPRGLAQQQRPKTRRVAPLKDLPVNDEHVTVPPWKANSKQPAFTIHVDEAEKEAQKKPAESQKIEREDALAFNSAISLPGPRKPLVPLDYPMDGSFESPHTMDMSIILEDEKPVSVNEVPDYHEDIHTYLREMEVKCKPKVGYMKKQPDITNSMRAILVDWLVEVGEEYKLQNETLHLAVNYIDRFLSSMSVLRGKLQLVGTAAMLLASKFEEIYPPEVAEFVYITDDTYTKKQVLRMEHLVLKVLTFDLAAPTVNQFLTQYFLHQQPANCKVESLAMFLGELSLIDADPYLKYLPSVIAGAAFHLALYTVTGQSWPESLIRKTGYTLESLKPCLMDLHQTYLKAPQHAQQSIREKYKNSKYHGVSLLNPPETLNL
Sequence of MAPK13 (human) (O15264 whole entry, looked up): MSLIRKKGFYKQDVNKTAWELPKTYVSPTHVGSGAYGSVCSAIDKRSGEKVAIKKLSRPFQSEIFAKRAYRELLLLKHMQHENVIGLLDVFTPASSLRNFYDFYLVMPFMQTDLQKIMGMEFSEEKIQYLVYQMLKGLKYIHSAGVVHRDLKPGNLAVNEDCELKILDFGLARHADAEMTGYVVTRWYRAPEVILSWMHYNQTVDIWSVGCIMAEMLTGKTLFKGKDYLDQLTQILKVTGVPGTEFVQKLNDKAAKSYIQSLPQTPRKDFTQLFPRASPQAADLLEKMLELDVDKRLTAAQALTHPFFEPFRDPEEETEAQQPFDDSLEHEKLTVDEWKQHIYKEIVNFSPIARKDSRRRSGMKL

Work on `Nc1cc(C(F)(F)F)c(-c2cc(N3CCOCC3)nc(N3CCOCC3)n2)cn1` yielded an inhibition (FLT4 (human)) of 2%, an inhibition (CAMK2A (human)) of 2% and an inhibition (PLK1 (human)) of 1%. The inhibition (CDK5 CDK5R1 p35 (human)) was -1%, the inhibition (CAMK2B (human)) was 9% and the inhibition (YES1 (human)) was 12%. The inhibition (EPHB4 (human)) was -4%, the inhibition (CAMK1D (human)) was 12% and the inhibition (SYK (human)) was 1%. For the same molecule, the inhibition (MINK1 (human)) was 4%, the inhibition (PRKX (human)) was 0% and the inhibition (PRKCD (human)) was 4%. The inhibition [1] was 1%, the inhibition [2] was 11% and the inhibition [3] was 12%. It also gave an inhibition (EPHA1 (human)) of -2%, an inhibition (MAP2K1 (human)) of 4% and an inhibition (MAPK13 (human)) of 2%. For the same molecule, the inhibition (CDK2 CCNA2 (human)) was 2%, the inhibition (MST4 (human)) was -3% and the inhibition (TSSK2 (human)) was -6%. It also gave an inhibition (CSNK1G2 (human)) of 0%, an inhibition (CAMK2D (human)) of 1% and an inhibition (EPHA3 (human)) of -2%. It also gave an inhibition (GSK3B (human)) of 7%, an inhibition (FRK (human)) of 2% and an inhibition (PHKG2 (human)) of 3%. For the same molecule, the inhibition (FLT3 (human)) was 18%, the inhibition [4] was 11% and the inhibition (FYN (human)) was 9%. It also gave an inhibition (STK25 (human)) of 6%, an inhibition (CHEK2 (human)) of 17% and an inhibition (DYRK4 (human)) of 3%. The inhibition (SGK1 (human)) was 25%, the inhibition (MAPK11 (human)) was 4% and the inhibition (FGFR2 (human)) was 2%. The inhibition (BMX (human)) was 3%, the inhibition (STK3 (human)) was 5% and the inhibition (AKT1 (human)) was 2%. The inhibition (PASK (human)) was -1%.
